Data taken from patent publication US20100120887A1, “SUSTAINED RELEASE FORMULATION OF MELATONIN” (THE TRUSTEES OF COLUMBIA UNIVERSITY IN THE CITY OF NEW YORK, priority 2007, published 2010).

Experiment: Initial clinical evaluation, open clinical treatment of circadian sleep disorders and depression (case reports)
Assay type: in vivo, human
Text: The present invention describes tablet formulation, in vitro and in vivo pharmacokinetics in a healthy, middle-aged subject group, and a range of potential uses. In the past three years, the present invention has been used in open clinical treatment of a variety of cases comprising circadian sleep disorders and depression. The strategy for treatment concentrates on serious cases, from which application to less severe cases—far more common population-wide—can be inferred. For example, in Delayed Sleep Phase Disorder (DSPD), the patient cannot fall asleep before wee hours of the night or early morning because of misalignment of the internal circadian timing system with external day and night. […] Melatonin is the chronobiotic par exemplar. Milder circadian misalignment is highly prevalent in the population, often starting in adolescence. A typical example is the worker who must maintain a 9-5 schedule but cannot fall asleep before 1 AM (“early insomnia”), leaving six hours for sleep availability, leading to daytime fatigue, disorientation, lapses of alertness, and weekend oversleeping that can trigger depressed mood. Such people comprise a primary market for the present invention, with the prospect of reduced reliance on sleeping pills.
Thus far, an ensemble of chronotherapeutic interventions has been used in clinical trials. […]

COc1ccc2[nH]cc(CCNC(C)=O)c2c1 [melatonin, N-acetyl-5-methoxytryptamine]
sleep onset and depressive symptoms under treatment (Case 2: seasonal depression, sleep not before 1 AM, melatonin at 6:30 PM plus light therapy 45 minutes): go to sleep at 11:30 PM with remission of depressive symptoms | sleep onset under treatment (Case 3: history of seasonal depression, melatonin around 9 PM plus intermittent light therapy): able to sleep at midnight without effort
